In brackets after ≈: the same amount, converted by molar mass. Several values for one entry are separate records, joined by “and”; a condition that tells them apart may be missing. Identical values can stand only once. Like-named read-outs stand apart in the source and are kept apart here.
Key:
P. aeruginosa DSM1117 = assay: MIC, standard microdilution assay, growing P. aeruginosa; type: cell-based, Pseudomonas aeruginosa; settings: P. aeruginosa
Procedure, shortened: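 Medium: CA-MHB + 40 mM HEPES, pH 7.4 (UPEC, P. aeruginosa, S. aureus); LPM + 30 mM MES, pH 5.5 (UPEC, extra condition); TSB (S. flexneri). Microdilution format, n = 3.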

non-growing UPEC CFT073 [1] = assay: Dilution-regrowth assay (screen, hit validation, dose-response) on stationary-phase UPEC; type: cell-based, Escherichia coli; settings: for Regrowth: OD600 after dilution into drug-free medium (mean): OD600 at 6h or 8h
Procedure, shortened: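 Regrowth (OD600 after 6 h, 37 °C) of diluted non-growing CFT073, following 24 h compound treatment of 24 h stationary cultures, defines activity relative to untreated control. Screen at 20 µM, validation at 20, 10, 5 µM (duplicates), dose–response in three biological replicates fitted by five-parameter logistic.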

[2] = tested on: non-growing S. aureus DSM2569; assay: Dilution-regrowth assay (OD600, start-growth-time) on stationary-phase S. aureus; type: cell-based, Staphylococcus aureus; settings: S. aureus; for Regrowth: OD600 after dilution into drug-free medium (mean): OD600 at 6h or 8h
Procedure, shortened: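 Non-growing S. aureus was tested in a dilution-regrowth format. Cells were cultured and treated for 24 h in 1:4 diluted CA-MHB, pH 7.4, then diluted into drug-free medium, and OD600 was measured every 20 min. Start-growth-time was the time OD600 passed 0.12. Dose-response curves were fitted with a five-parameter logistic equation to derive EC50.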

non-growing UPEC CFT073 [3] = assay: Dose-dependent killing analysis (CFU spot-plating) of stationary-phase UPEC; type: cell-based, Escherichia coli
Procedure, shortened: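 Killing assessed by CFU counts: overnight 37 °C LB agar spot plates (10 μl drops of 10-fold PBS dilutions) scored at the lowest dilution with distinct colonies. Samples were compound-treated non-growing UPEC CFT073, 200 μl per well. Performed as three biological replicates.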

[4] = E. coli in 1:4 CA-MHB (pH 7.4), concentration 0.25
[5] = E. coli in 1:4 CA-MHB (pH 7.4), concentration 0.5
[6] = E. coli in 1:4 CA-MHB (pH 7.4), concentration 1
[7] = E. coli in 1:4 CA-MHB (pH 7.4), concentration 2.5
[8] = E. coli in 1:4 CA-MHB (pH 7.4), concentration 5
[9] = E. coli in 1:4 CA-MHB (pH 7.4), concentration 10
[10] = E. coli in LPM (pH 5.5), concentration 0.25
[11] = E. coli in LPM (pH 5.5), concentration 0.5
[12] = E. coli in LPM (pH 5.5), concentration 1
[13] = E. coli in LPM (pH 5.5), concentration 2.5
[14] = E. coli in LPM (pH 5.5), concentration 5
[15] = E. coli in LPM (pH 5.5), concentration 10

## CO[C@H]1/C=C/O[C@@]2(C)Oc3c(C)c(O)c4c(O)c(c(/C=N/N=C/N5CCCCC5)c(O)c4c3C2=O)NC(=O)/C(C)=C\C=C\[C@H](C)[C@H](O)[C@@H](C)[C@@H](O)[C@@H](C)[C@H](OC(C)=O)[C@@H]1C [FCE-22250]
P. aeruginosa DSM1117; 1:4 diluted CA-MHB pH 7.4, read-out: MIC (μM) 1:4 CA-MHB
  MIC: 10 µM (≈ 8.35 µg/mL)
P. aeruginosa DSM1117; CA-MHB pH 7.4, read-out: MIC (μM) CA-MHB
  MIC: >160 µM
non-growing UPEC CFT073 [1]; [4]
  Regrowth: OD600 after dilution into drug-free medium (mean): 0.613
non-growing UPEC CFT073 [1]; [5]
  Regrowth: OD600 after dilution into drug-free medium (mean): 0.587
non-growing UPEC CFT073 [1]; [6]
  Regrowth: OD600 after dilution into drug-free medium (mean): 0.569
non-growing UPEC CFT073 [1]; [7]
  Regrowth: OD600 after dilution into drug-free medium (mean): 0.549
non-growing UPEC CFT073 [1]; [8]
  Regrowth: OD600 after dilution into drug-free medium (mean): 0.529
non-growing UPEC CFT073 [1]; [9]
  Regrowth: OD600 after dilution into drug-free medium (mean): 0.515
non-growing UPEC CFT073 [1]; E. coli in 1:4 CA-MHB (pH 7.4), concentration 30
  Regrowth: OD600 after dilution into drug-free medium (mean): 0.347
non-growing UPEC CFT073 [1]; [10]
  Regrowth: OD600 after dilution into drug-free medium (mean): 0.566
non-growing UPEC CFT073 [1]; [11]
  Regrowth: OD600 after dilution into drug-free medium (mean): 0.535
non-growing UPEC CFT073 [1]; [12]
  Regrowth: OD600 after dilution into drug-free medium (mean): 0.500
non-growing UPEC CFT073 [1]; [13]
  Regrowth: OD600 after dilution into drug-free medium (mean): 0.418
non-growing UPEC CFT073 [1]; [14]
  Regrowth: OD600 after dilution into drug-free medium (mean): 0.299
non-growing UPEC CFT073 [1]; [15]
  Regrowth: OD600 after dilution into drug-free medium (mean): 0.206
non-growing UPEC CFT073 [1]; E. coli in LPM (pH 5.5), concentration 30
  Regrowth: OD600 after dilution into drug-free medium (mean): 0.134
non-growing UPEC CFT073 [1]; E. coli, LPM pH 5.5, regrowth delay of non-growing bacteria, 24 h treatment, OD600 6 h after 2500-fold dilution, read-out: EC50
  EC50: 3.97 µM
non-growing UPEC CFT073 [1]; LPM pH 5.5 (red curve), medium assigned by comparison with Dataset 1, read-out: EC50 (regrowth inhibition curve, Fig. S4)
  EC50: 3.45 µM
[2]; concentration 0.1
  Regrowth: OD600 after dilution into drug-free medium (mean): 0.461
[2]; concentration 0.5
  Regrowth: OD600 after dilution into drug-free medium (mean): 0.312
[2]; concentration 2.5
  Regrowth: OD600 after dilution into drug-free medium (mean): 0.178
[2]; concentration 10
  Regrowth: OD600 after dilution into drug-free medium (mean): 0.092
[2]; regrowth delay of non-growing bacteria, 1:4 CA-MHB pH 7.4, 24 h treatment, OD600 8 h after dilution, read-out: EC50
  EC50: 278 nM
non-growing UPEC CFT073 [3]; [4]
  log10(CFU/ml) after treatment, single replicates: 9.301 log10(CFU/ml) and 8.845 log10(CFU/ml) and 8.602 log10(CFU/ml)
non-growing UPEC CFT073 [3]; E. coli in 1:4 CA-MHB (pH 7.4), concentration 0.25, vs 8.977 before treatment
  Killing: average Δlog10(CFU/ml): 0.061 log10(CFU/ml)
non-growing UPEC CFT073 [3]; [5]
  log10(CFU/ml) after treatment, single replicates: 9.505 log10(CFU/ml) and 9.176 log10(CFU/ml) and 8.301 log10(CFU/ml)
non-growing UPEC CFT073 [3]; E. coli in 1:4 CA-MHB (pH 7.4), concentration 0.5, vs 8.977 before treatment
  Killing: average Δlog10(CFU/ml): -0.017 log10(CFU/ml)
non-growing UPEC CFT073 [3]; [6]
  log10(CFU/ml) after treatment, single replicates: 9.556 log10(CFU/ml) and 9.114 log10(CFU/ml) and 8.431 log10(CFU/ml)
non-growing UPEC CFT073 [3]; E. coli in 1:4 CA-MHB (pH 7.4), concentration 1, vs 8.977 before treatment
  Killing: average Δlog10(CFU/ml): -0.057 log10(CFU/ml)
non-growing UPEC CFT073 [3]; [7]
  log10(CFU/ml) after treatment, single replicates: 9.415 log10(CFU/ml) and 8.954 log10(CFU/ml) and 8.342 log10(CFU/ml)
non-growing UPEC CFT073 [3]; E. coli in 1:4 CA-MHB (pH 7.4), concentration 2.5, vs 8.977 before treatment
  Killing: average Δlog10(CFU/ml): 0.073 log10(CFU/ml)
non-growing UPEC CFT073 [3]; [8]
  log10(CFU/ml) after treatment, single replicates: 9.477 log10(CFU/ml) and 8.903 log10(CFU/ml) and 8.431 log10(CFU/ml)
non-growing UPEC CFT073 [3]; E. coli in 1:4 CA-MHB (pH 7.4), concentration 5, vs 8.977 before treatment
  Killing: average Δlog10(CFU/ml): 0.040 log10(CFU/ml)
non-growing UPEC CFT073 [3]; [9]
  log10(CFU/ml) after treatment, single replicates: 9.519 log10(CFU/ml) and 8.845 log10(CFU/ml) and 8.778 log10(CFU/ml)
non-growing UPEC CFT073 [3]; E. coli in 1:4 CA-MHB (pH 7.4), concentration 10, vs 8.977 before treatment
  Killing: average Δlog10(CFU/ml): -0.070 log10(CFU/ml)
non-growing UPEC CFT073 [3]; [10]
  log10(CFU/ml) after treatment, single replicates: 7.041 log10(CFU/ml) and 7.176 log10(CFU/ml) and 8.079 log10(CFU/ml)
non-growing UPEC CFT073 [3]; E. coli in LPM (pH 5.5), concentration 0.25, vs 7.350 before treatment
  Killing: average Δlog10(CFU/ml): -0.082 log10(CFU/ml)
non-growing UPEC CFT073 [3]; [11]
  log10(CFU/ml) after treatment, single replicates: 6.845 log10(CFU/ml) and 6.778 log10(CFU/ml) and 8.000 log10(CFU/ml)
non-growing UPEC CFT073 [3]; E. coli in LPM (pH 5.5), concentration 0.5, vs 7.350 before treatment
  Killing: average Δlog10(CFU/ml): 0.143 log10(CFU/ml)
non-growing UPEC CFT073 [3]; [12]
  log10(CFU/ml) after treatment, single replicates: 7.176 log10(CFU/ml) and 7.255 log10(CFU/ml) and 8.000 log10(CFU/ml)
non-growing UPEC CFT073 [3]; E. coli in LPM (pH 5.5), concentration 1, vs 7.350 before treatment
  Killing: average Δlog10(CFU/ml): -0.127 log10(CFU/ml)
non-growing UPEC CFT073 [3]; [13]
  log10(CFU/ml) after treatment, single replicates: 6.845 log10(CFU/ml) and 6.954 log10(CFU/ml) and 7.845 log10(CFU/ml)
non-growing UPEC CFT073 [3]; E. coli in LPM (pH 5.5), concentration 2.5, vs 7.350 before treatment
  Killing: average Δlog10(CFU/ml): 0.136 log10(CFU/ml)
non-growing UPEC CFT073 [3]; [14]
  log10(CFU/ml) after treatment, single replicates: 6.778 log10(CFU/ml) and 6.845 log10(CFU/ml) and 7.785 log10(CFU/ml)
non-growing UPEC CFT073 [3]; E. coli in LPM (pH 5.5), concentration 5, vs 7.350 before treatment
  Killing: average Δlog10(CFU/ml): 0.214 log10(CFU/ml)
non-growing UPEC CFT073 [3]; [15]
  log10(CFU/ml) after treatment, single replicates: 6.954 log10(CFU/ml) (2×) and 7.531 log10(CFU/ml)
non-growing UPEC CFT073 [3]; E. coli in LPM (pH 5.5), concentration 10, vs 7.350 before treatment
  Killing: average Δlog10(CFU/ml): 0.204 log10(CFU/ml)
